Patent publication US8871716B2, “Use of antimicrobial peptides in regeneration of skin cells” (Korea Advanced Institute of Science and Technology, priority 2010, dated 2014)
Where no end group is shown, it is not given here.

Assays:
HaCat = assay: scratched wound-healing assay of skin cell regeneration; type: cell-based, human; conditions: 1 μM peptide, 12 hrs incubation
Procedure: To examine whether each of the peptides synthesized in Example 1 can enhance the regeneration of skin cells, a scratched wound-healing assay was used. 900 μL of a suspension containing HaCat at a concentration of 1×10^5 CFU/ml was placed in each well of 12-well plates and incubated for 3 days. […] A clear zone was set at the center of each well of the plate using a yellow tip. After incubation for 12 hrs, a reduced area of the clear zone was measured to determine the effect of each peptide on the regeneration of skin cells (FIG. 2). For a control, no peptides were used.

human skin cell HaCat = assay: boyden chamber assay of skin cell migration; type: cell-based; parameters: migration of skin cells relative to a control: dose or concentration left out as unconfirmed; conditions: for skin cell migratory activity relative to the control: 1 μM peptide (most effective concentration), HaCat, control: medium without peptide; for migration of skin cells relative to a control: boyden chamber assay
Procedure: To examine whether each of the peptides synthesized in Example 1 could promote the migration of skin cells, a boyden chamber assay was used.
In the chamber of two compartments separated by a microporous membrane, 50 μL of a suspension containing the human skin cell HaCat at a concentration of 5×10^3 CFU/ml was placed in the upper compartment and were allowed to migrate through the pores of the membrane into the lower compartment in which a 0.25˜16 μM dilution of each of the peptides in a skin cell culture medium was present. The cells which migrated into the lower compartment were counted to determine the ability of each of the peptides to promote skin cell […] (FIG. 1). For a control, a skin cell culture medium containing none of the peptides was used.

full-thickness wound = full-thickness wound healing on the back of mice; type: in vivo; conditions: 50 μL of 1 μM peptide applied to wound once a day for two days
Procedure: Mice were shaved on the back using an electric razor, followed by forming a full-thickness wound 1.1 cm in diameter using surgical scissors. Application of 50 μL of 1 μM peptide 17 to the wound was continued for 2 days, after which the size of the wound was measured. The wound healing activity of peptide 17 was expressed by the reduced area of the wound (FIG. 3). As the control, the mice were treated with distilled water instead of peptide 17.

Row | Sequence | rate of regeneration of skin cells (reduced area of clear zone) versus no peptide (HaCat) | skin cell migratory activity relative to the control (human skin cell HaCat) | migration of skin cells relative to a control (human skin cell HaCat) | rate of reduction of wound area versus distilled water control (full-thickness wound)
1 | APKAMKLLKKLLKLQKKGI (APKAMKLLKKLLKLQKKGI-NH2) [Peptide 17] | 2.5 fold | about 4.5 times that of the control | 4.5 times higher than a control | 7 fold
2 | APKAMRLLRRLLRLQKKGI (APKAMRLLRRLLRLQKKGI-NH2) [Peptide 26] | 2.5 fold | about 4.5 times that of the control | 4.5 times higher than a control | –
